Assay results reported in patent US6737383B1, “Herbicidal oxadiazolidines” (priority 1999, dated 2004).

Legend:
sugar beet = assay: Test B pre/postemergence sugar beet; type: in vivo, Beta vulgaris
In short: (§1)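 Herbicidal effect was estimated by eye on a ten-point control scale after plants spent twelve to sixteen days in a greenhouse following soil or foliar treatment. Foliar sprays targeted plants at one to four leaves; all doses were formulated in a non-phytotoxic solvent with surfactant.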

surinam grass = assay: Test B pre/postemergence surinam grass; type: in vivo, Brachiaria decumbens
In short: as §1

crabgrass = assay: Test B pre/postemergence crabgrass; type: in vivo, Digitaria sanguinalis
In short: as §1

wheat = assay: Test B pre/postemergence wheat; type: in vivo, Triticum aestivum
In short: as §1

giant foxtail = assay: Test B pre/postemergence giant foxtail; type: in vivo, Setaria faberii
In short: as §1

purple nutsedge = assay: Test B pre/postemergence purple nutsedge; type: in vivo, Cyperus rotundus
In short: as §1

cocklebur = assay: Test B pre/postemergence cocklebur; type: in vivo, Xanthium strumarium
In short: as §1

corn = assay: Test B pre/postemergence corn; type: in vivo, Zea mays
In short: as §1

smallflower flatsedge = assay: Test B flood test smallflower flatsedge; type: in vivo, Cyperus difformis
In short: (§2)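 Read-out is a visual response score from 0 (no effect) to 10 (complete control), assigned by comparison with untreated controls. Treatment was applied at the 2-leaf stage, and plants stayed in the greenhouse for twelve to sixteen days before scoring.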

morningglory = assay: Test B pre/postemergence morningglory; type: in vivo, Ipomoea hederacea
In short: as §1

blackgrass = assay: Test B pre/postemergence blackgrass; type: in vivo, Alopecurus myosuroides
In short: as §1

duck salad = assay: Test B flood test duck salad; type: in vivo, Heteranthera limosa
In short: as §2

velvetleaf = assay: Test B pre/postemergence velvetleaf; type: in vivo, Abutilon theophrasti
In short: as §1

soybean = assay: Test B pre/postemergence soybean; type: in vivo, Glycine max
In short: as §1

rape = assay: Test B pre/postemergence rape; type: in vivo, Brassica napus
In short: as §1

wild oat = assay: Test B pre/postemergence wild oat; type: in vivo, Avena fatua
In short: as §1

[1] = Preemergence, Rate 62 g/ha, scale of 0 to 10 where 0 is no effect and 10 is complete control
[2] = Preemergence, Rate 125 g/ha, 0 is no effect, 10 is complete control
[3] = Preemergence, Rate 250 g/ha, scale 0 to 10, 0 is no effect, 10 is complete control
[4] = Preemergence, Rate 500 g/ha, scale 0 to 10 (0 no effect, 10 complete control)
[5] = Rate 62 g/ha, Postemergence, scale of 0 to 10 where 0 is no effect and 10 is complete control
[6] = Rate 125 g/ha, Postemergence, scale 0 to 10
[7] = Rate 500 g/ha, Postemergence, scale 0 to 10
[8] = Rate 62 g/ha, headed Pre-emergence (flood test species), scale 0 to 10 (0 no effect, 10 complete control)
[9] = Rate 125 g/ha, Pre-emergence, flood test species, scale 0 to 10 where 0 is no effect and 10 is complete control
[10] = Rate 250 g/ha, Pre-emergence, flood-test species, scale 0 to 10, 0 is no effect, 10 is complete control

CCN(C(=O)n1oc(=O)n(C(C)C)c1=O)c1nncs1 [Compound 190]
Sugarbeets plant response rating (sugar beet; [1]): 0 | Sugarbeets plant response rating (0 to 10 scale) (sugar beet; [2]): 0 | Sugarbeets plant response rating (sugar beet; [3]): 0 | Sugarbeets plant response rating (sugar beet; [4]): 0 | Sugarbeets plant response rating (sugar beet; [5]): 0 | Sugarbeets plant response rating (sugar beet; [6]): 0 | Plant response rating (0 to 10; 0 is no effect, 10 is complete control), Sugarbeets (sugar beet; Rate 250 g/ha, Postemergence): 0 | Sugarbeets plant response rating (sugar beet; [7]): 0 | B. signalgrass plant response rating (surinam grass; [1]): 0 | B. signalgrass plant response rating (0 to 10 scale) (surinam grass; [2]): 0 | B. signalgrass plant response rating (surinam grass; [3]): 0 | B. signalgrass plant response rating (surinam grass; [4]): 0 | B. signalgrass plant response rating (surinam grass; [5]): 0 | B. signalgrass plant response rating (surinam grass; Rate 125 g/ha, Postemergence, scale 0 (no effect) to 10 (complete control)): 0 | Plant response rating, B. signalgrass (surinam grass; Rate 250 g/ha, Postemergence, scale 0 to 10, 0 is no effect, 10 is complete control): 0 | B. signalgrass plant response rating (surinam grass; Rate 500 g/ha, Postemergence, scale 0 to 10, 0 no effect, 10 complete control): 0 | Crabgrass plant response rating (crabgrass; [1]): 0 | Crabgrass plant response rating (0 to 10 scale) (crabgrass; [2]): 0 | Crabgrass plant response rating (crabgrass; [3]): 0 | Crabgrass plant response rating (crabgrass; [4]): 0 | Crabgrass plant response rating (crabgrass; [5]): 0 | Crabgrass plant response rating (crabgrass; [6]): 0 | Plant response rating (0 to 10; 0 is no effect, 10 is complete control), Crabgrass (crabgrass; Rate 250 g/ha, Postemergence): 0 | Crabgrass plant response rating (crabgrass; [7]): 0 | Wheat plant response rating (wheat; [1]): 0 | Wheat plant response rating (wheat; [3]): 0 | Wheat plant response rating (wheat; [4]): 0 | Wheat plant response rating (wheat; [5]): 0 | Wheat plant response rating (wheat; [6]): 0 | Plant response rating (0 to 10; 0 is no effect, 10 is complete control), Wheat (wheat; Rate 250 g/ha, Postemergence): 0 | Giant foxtail plant response rating (giant foxtail; [1]): 0 | Giant foxtail plant response rating (0 to 10 scale) (giant foxtail; [2]): 0 | Giant foxtail plant response rating (giant foxtail; [3]): 0 | Giant foxtail plant response rating (giant foxtail; [4]): 0 | Giant foxtail plant response rating (giant foxtail; [5]): 0 | Giant foxtail plant response rating (giant foxtail; [6]): 0 | Plant response rating (0 to 10; 0 is no effect, 10 is complete control), Giant foxtail (giant foxtail; Rate 250 g/ha, Postemergence): 0 | Giant foxtail plant response rating (giant foxtail; [7]): 0 | Nutsedge plant response rating (purple nutsedge; [1]): 0 | Nutsedge plant response rating (purple nutsedge; [3]): 0 | Nutsedge plant response rating (purple nutsedge; [4]): 0 | Nutsedge plant response rating (purple nutsedge; [5]): 0 | Nutsedge plant response rating (purple nutsedge; [6]): 0 | Plant response rating (0 to 10; 0 is no effect, 10 is complete control), Nutsedge (purple nutsedge; Rate 250 g/ha, Postemergence): 0 | Nutsedge plant response rating (purple nutsedge; [7]): 0 | Cocklebur plant response rating (cocklebur; [1]): 0 | Cocklebur plant response rating (0 to 10 scale) (cocklebur; [2]): 0 | Cocklebur plant response rating (cocklebur; [3]): 0 | Cocklebur plant response rating (cocklebur; [4]): 0 | Cocklebur plant response rating (cocklebur; [5]): 0 | Cocklebur plant response rating (cocklebur; [6]): 0 | Plant response rating (0 to 10; 0 is no effect, 10 is complete control), Cocklebur (cocklebur; Rate 250 g/ha, Postemergence): 0 | Cocklebur plant response rating (cocklebur; [7]): 0 | Corn plant response rating (corn; [1]): 0 | Corn plant response rating (0 to 10 scale) (corn; [2]): 0 | Corn plant response rating (corn; [3]): 0 | Corn plant response rating (corn; [4]): 0 | Corn plant response rating (corn; [5]): 0 | Corn plant response rating (corn; [6]): 0 | Plant response rating (0 to 10; 0 is no effect, 10 is complete control), Corn (corn; Rate 250 g/ha, Postemergence): 0 | Corn plant response rating (corn; [7]): 0 | S. Flatsedge plant response rating (smallflower flatsedge; [8]): 0 | S. Flatsedge plant response rating (smallflower flatsedge; [9]): 0 | S. Flatsedge plant response rating (smallflower flatsedge; [10]): 0 | S. Flatsedge plant response rating (smallflower flatsedge; Rate 500 g/ha, Pre-emergence, flood test species, scale 0 to 10 (0 no effect, 10 complete control)): 0 | Morningglory plant response rating (morningglory; [1]): 0 | Morningglory plant response rating (0 to 10 scale) (morningglory; [2]): 0 | Morningglory plant response rating (morningglory; [3]): 0 | Morningglory plant response rating (morningglory; [4]): 0 | Morningglory plant response rating (morningglory; [5]): 0 | Morningglory plant response rating (morningglory; [6]): 0 | Plant response rating (0 to 10; 0 is no effect, 10 is complete control), Morningglory (morningglory; Rate 250 g/ha, Postemergence): 0 | Morningglory plant response rating (morningglory; [7]): 0 | Blackgrass plant response rating (blackgrass; [1]): 0 | Blackgrass plant response rating (0 to 10 scale) (blackgrass; [2]): 0 | Blackgrass plant response rating (blackgrass; [3]): 0 | Blackgrass plant response rating (blackgrass; [4]): 3 | Blackgrass plant response rating (blackgrass; [5]): 0 | Blackgrass plant response rating (blackgrass; [6]): 0 | Plant response rating (0 to 10; 0 is no effect, 10 is complete control), Blackgrass (blackgrass; Rate 250 g/ha, Postemergence): 0 | Blackgrass plant response rating (blackgrass; [7]): 0 | Ducksalad plant response rating (duck salad; [8]): 0 | Ducksalad plant response rating (duck salad; [9]): 0 | Ducksalad plant response rating (duck salad; [10]): 0 | Plant response rating, Ducksalad (duck salad; Rate 500 g/ha, headed Pre-emergence (flood test species), scale 0 to 10 (0 no effect, 10 complete control)): 0 | Velvetleaf plant response rating (velvetleaf; [1]): 0 | Velvetleaf plant response rating (velvetleaf; [3]): 0 | Velvetleaf plant response rating (velvetleaf; [4]): 0 | Velvetleaf plant response rating (velvetleaf; [5]): 0 | Velvetleaf plant response rating (velvetleaf; [6]): 0 | Plant response rating (0 to 10; 0 is no effect, 10 is complete control), Velvetleaf (velvetleaf; Rate 250 g/ha, Postemergence): 0 | Soybean plant response rating (soybean; [1]): 0 | Soybean plant response rating (0 to 10 scale) (soybean; [2]): 0 | Soybean plant response rating (soybean; [3]): 0 | Soybean plant response rating (soybean; [4]): 0 | Soybean plant response rating (soybean; [5]): 0 | Soybean plant response rating (soybean; [6]): 0 | Plant response rating (0 to 10; 0 is no effect, 10 is complete control), Soybean (soybean; Rate 250 g/ha, Postemergence): 0 | Soybean plant response rating (soybean; [7]): 0 | Rape plant response rating (rape; [1]): 0 | Rape plant response rating (0 to 10 scale) (rape; [2]): 0 | Rape plant response rating (rape; [3]): 0 | Rape plant response rating (rape; [4]): 0 | Rape plant response rating (rape; [5]): 0 | Rape plant response rating (rape; [6]): 0 | Plant response rating (0 to 10; 0 is no effect, 10 is complete control), Rape (rape; Rate 250 g/ha, Postemergence): 0 | Rape plant response rating (rape; [7]): 0 | Wild oats plant response rating (wild oat; [1]): 0 | Wild oats plant response rating (wild oat; [3]): 0 | Wild oats plant response rating (wild oat; [4]): 0 | Wild oats plant response rating (wild oat; [5]): 0 | Wild oats plant response rating (wild oat; [6]): 0 | Plant response rating (0 to 10; 0 is no effect, 10 is complete control), Wild oats (wild oat; Rate 250 g/ha, Postemergence): 0
